Assay [1] addresses recombinant NA-1 (H1N1 neuraminidase) (Influenza A virus, UniProt Q9IGQ6). Kind of assay: biochemical.
For another assay, the system named is mouse liver sialidase. Conditions: cited from earlier work.
Another assay relates to bacterial NA. Conditions: cited from earlier work.

As a reminder, the IC50 is the concentration at which inhibition is half-maximal.

In brackets after ≈: the same amount, converted by molar mass.

Chain of recombinant NA-1 (H1N1 neuraminidase) (Q9IGQ6 whole entry, looked up): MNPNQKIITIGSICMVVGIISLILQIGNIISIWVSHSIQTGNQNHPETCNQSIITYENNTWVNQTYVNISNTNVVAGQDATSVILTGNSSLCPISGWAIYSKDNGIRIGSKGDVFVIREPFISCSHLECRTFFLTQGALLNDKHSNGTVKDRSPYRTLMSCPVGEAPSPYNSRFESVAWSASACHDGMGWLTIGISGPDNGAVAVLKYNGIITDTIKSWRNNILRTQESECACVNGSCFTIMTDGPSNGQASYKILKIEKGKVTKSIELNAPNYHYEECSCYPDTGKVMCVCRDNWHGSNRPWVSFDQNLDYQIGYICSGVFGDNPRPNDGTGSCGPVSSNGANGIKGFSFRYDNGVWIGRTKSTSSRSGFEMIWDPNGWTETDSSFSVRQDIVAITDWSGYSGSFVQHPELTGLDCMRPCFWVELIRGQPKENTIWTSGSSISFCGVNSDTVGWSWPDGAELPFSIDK

With `COc1cc2c(cc1OC)-c1cc3ccc4c(c3c[n+]1CC2)OCO4` [Epiberberine], the IC50 in assay [1] is 99.9 µM.
`COc1c(O[C@@H]2O[C@H](C(=O)O)[C@@H](O)[C@H](O)[C@H]2O)cc2oc(-c3ccccc3)cc(=O)c2c1O` [Oroxylin A 7-O-β-D-glucuronide]: in assay [1], the “IC10 on NA-1 activity” value is 29.3 ± 7.8 µg/mL (≈ 63.6 µM) and the concentration for half-maximal inhibition (IC50) was 621 µM.
With `COc1c(O)cc(O)c2c(=O)cc(-c3ccccc3)oc12` [Wogonin], in assay [1], the “IC10 on NA-1 activity” value was determined as 34.0 ± 5.1 µg/mL (≈ 120 µM) and the concentration for half-maximal inhibition (IC50) is 866 µM. For the same compound, in the assay with mouse liver sialidase, the “Inhibition of mouse liver sialidase” value is on record as “inhibited”.
Take `O=C(O)[C@H]1O[C@@H](Oc2cc3oc(-c4ccccc4)cc(=O)c3c(O)c2O)[C@H](O)[C@@H](O)[C@@H]1O` [Baicalin]: in assay [1], the IC50 is 1650 µM.
Consider `O=c1cc(-c2ccccc2)oc2cc(O)c(O)c(O)c12` [Baicalein], for which, in assay [1], the “IC10 on NA-1 activity” value was determined as 75.0 ± 29.1 µg/mL (≈ 278 µM) and the IC50 was 590 µM.
Turning to `c1c2c(cc3c1OCO3)-c1cc3ccc4c(c3c[n+]1CC2)OCO4` [Coptisine], the IC50 in assay [1] was 327 µM. Further, in the assay on bacterial NA, the “Inhibition of bacterial NA activity” value is given as “inhibited”.
Take `COC(=O)C1=CO[C@@H](O[C@@H]2O[C@H](CO)[C@@H](O)[C@H](O)[C@H]2O)[C@@H]2C(CO)=CC[C@H]12` [Geniposide]: in assay [1], the “IC10 on NA-1 activity” value came to 2.8 ± 0.2 µg/mL (≈ 7.21 µM) and the IC50 was 87.5 µM.
Take `CCC(CC)[C@H](NC(C)=O)[C@@H]1[C@H](O)[C@@H](C(=O)O)C[C@H]1N=C(N)N` [Peramivir, reference compound]: in assay [1], the “IC10 on NA-1 activity” value came out at 64.8 ± 8.4 µg/mL (≈ 197 µM) and the “IC50 on NA-1 activity” value amounted to 478.8 ± 15.6 µg/mL (≈ 1460 µM).
Take `COc1cc2c(cc1O)C[C@H]1c3cc(O)c(OC)cc3CC[N@@+]1(C)C2` [Phellodendrine]: in assay [1], the “IC10 on NA-1 activity” value came out at 23.1 ± 2.7 µg/mL and the concentration for half-maximal inhibition (IC50) was 599 µM.
Take `COc1c(O)cc2oc(-c3ccccc3)cc(=O)c2c1O` [Oroxylin A]: in assay [1], the “IC10 on NA-1 activity” value was found to be 5.1 ± 1.4 µg/mL (≈ 17.9 µM) and the IC50 was 202 µM.
On to `COc1cc2c(cc1O)CC[n+]1cc3c(OC)c(OC)ccc3cc1-2` [Jatrorrhizine], for which, in assay [1], the “IC10 on NA-1 activity” value was found to be 1.9 ± 0.1 µg/mL and the half-maximal inhibitory concentration (IC50) is 67.1 µM. Also, the “Inhibition of bacterial NA activity” value in the assay with bacterial NA is recorded as “inhibited”.
For the compound `COc1ccc2cc3[n+](cc2c1OC)CCc1cc2c(cc1-3)OCO2` [Berberine], in assay [1], the “IC10 on NA-1 activity” value was found to be 3.1 ± 0.8 µg/mL and the half-inhibitory concentration (IC50) is 234 µM.
As for `COc1c(O[C@@H]2O[C@H](C(=O)O)[C@@H](O)[C@H](O)[C@H]2O)cc(O)c2c(=O)cc(-c3ccccc3)oc12` [Wogonoside], in assay [1], the “IC10 on NA-1 activity” value came to 19.6 ± 2.7 µg/mL (≈ 42.6 µM) and the IC50 is 405 µM. In addition, in the assay on mouse liver sialidase, the “Inhibition of mouse liver sialidase” value is “inhibited”.
As to `COc1cc2c(cc1OC)-c1cc3ccc(OC)c(OC)c3c[n+]1CC2` [Palmatine], in assay [1], the “IC10 on NA-1 activity” value was 2.1 ± 0.1 µg/mL and the IC50 was 50.5 µM. For the same compound, in the assay with bacterial NA, the “Inhibition of bacterial NA activity” value was “inhibited”.
